In publication PMC10891803, “Seleno-Warfare against Cancer: Decoding Antitumor Activity of Novel Acylselenoureas and Se-Acylisoselenoureas” (Pharmaceutics, 2024):

How the values were obtained:
DU-145 = assay: MTT cell viability assay, DU-145; assay type: cell-based, human; details: 48 h; for percentage of cell growth, DU-145: 10 µM, MTT screening (Figure S1); for IC50: Homo sapiens, DU-145, MTT, mean ± SD of three experiments, read-out: IC50 DU-145 (Prostate)
Description: (§1) The cell lines were purchased from the American Type Culture Collection (ATCC). The four tumor cell lines used were as follows: MDA-MB-231 (triple-negative breast cancer), HTB-54 (lung cancer), DU-145 (prostate cancer), and HCT-116 (colon cancer), and the non-tumoral cell line 185-B5 (mammary tissue) were grown in Roswell Park Memorial Institute (RPMI) 1640 medium culture (Thermo Scientific, USA), supplemented with 10% fetal bovine serum (FBS) (Thermo Scientific, USA) and 1% of antibiotics (10,000 units/mL penicillin and 10 mg/mL streptomycin (Thermo Scientific, USA)). Cells were preserved in tissue culture flasks at 37 °C and 5% CO2. The culture medium was replaced every two to three days.
(§2) Cell viability was determined using the MTT colorimetric assay. A total of 10,000 cells were seeded in each well in a 96-well plate for 24 h. Then, cells were incubated with the corresponding concentration of each tested compound and with DMSO (1%) as control for 48 h. Each compound was dissolved in DMSO at a stock concentration of 0.01 M. Firstly, each compound was tested at 2 concentrations (10 µM and 50 µM) in four human tumoral cell lines MDA-MB-231, HTB-54, DU-145, and HCT-116. Serial dilutions from stock concentration with culture medium were prepared. […] The cell viability was determined by the addition of 20 µL of MTT and its incubation for 2.5 h. Later, the culture medium was removed, and 50 µL of DMSO was added to dissolve formazan crystals. The absorbance was measured at 550 nm. Inhibitory concentration 50 (IC50) and selectivity index (SI) were calculated. Three different experiments were performed independently.
(§3) Cell viability results are expressed as the mean ± standard deviation (SD), and experiments were independently performed thrice in triplicates. IC50 values were determined using a non-linear curve regression analysis calculated by OriginPro 9.0 software.

HTB-54 = assay: MTT cell viability assay, HTB-54; assay type: cell-based, human; details: 48 h; for percentage of cell growth, HTB-54: 10 µM, MTT screening (Figure S1); for IC50: Homo sapiens, HTB-54, MTT, mean ± SD of three experiments, read-out: IC50 HTB-54 (Lung)
Description: as §1, §2, §3

MDA-MB-231 = assay: MTT cell viability assay, MDA-MB-231; assay type: cell-based, human; details: for percentage of cell growth, MDA-MB-231: 10 µM, MTT screening (Figure S1); for percentage of cell growth, MDA-MB-231 / IC50: 48 h; for IC50: Homo sapiens, MDA-MB-231, MTT, mean ± SD of three experiments, read-out: IC50 MDA-MB-231 (Breast); for Selectivity index (SI): IC50 184-B5/IC50 MDA-MB-231
Description: as §1, §2, §3

184-B5 = assay: MTT cell viability assay, non-malignant 184-B5; assay type: cell-based; details: Homo sapiens, 48 h, mean ± SD of three experiments, read-out: IC50 184-B5 (Breast, non-tumoral)
Description: as §1, §2, §3

HCT-116 = assay: MTT cell viability assay, HCT-116; assay type: cell-based, human; details: 10 µM, 48 h, MTT screening (Figure S1)
Description: as §1, §2, §3

[1] = test system: MDA-MB-231, HTB-54, DU-145, and HCT-116; assay: MTT initial screening in four tumor cell lines; assay type: cell-based; details: Homo sapiens, in at least three cell lines, 48 h, read-out: cell growth inhibition
Description: as §2

SMILES	percentage of cell growth, DU-145 (DU-145) [%]	IC50 (DU-145) [µM]	percentage of cell growth, HTB-54 (HTB-54) [%]	IC50 (HTB-54) [µM]	percentage of cell growth, MDA-MB-231 (MDA-MB-231) [%]	IC50 (MDA-MB-231) [µM]	Selectivity index (SI) (MDA-MB-231)	IC50 (184-B5) [µM]	percentage of cell growth, HCT-116 (HCT-116) [%]	inhibition at 10 µM [1] [%]	melting point [°C]
CC(C)NC(=[Se])NC(=O)c1cccs1 [Compound 17]	-72.56	5.12 ± 0.07	-22.97	5.09 ± 0.34	20.49	10.2 ± 0.39	4.15	42.2 ± 11.4	115.35	> 50	120 to 122
CC(C)N=C(NC(C)C)[Se]C(=O)Cc1cccs1 [Compound 5]	143.58		92.05		115.35				139.96		108 to 110
CC(C)NC(=[Se])NC(=O)/C=C/c1cccs1 [Compound 20]	-13.89		38.63		65.39				109.34		148 to 149
O=C(/C=C/c1cccs1)NC(=[Se])NC1CCCCC1 [Compound 13]	52.85		39.11		-21.69				145.89		
O=C(NC(=[Se])NC1CCCCC1)c1ccccc1 [Compound 8]	-90.24	8.83 ± 0.16	-18.34	14.6 ± 1.11	15.90	17.4 ± 5.09	1.55	27 ± 5.2	104.00	> 50	71 to 73
CC(C)NC(=[Se])NC(=O)c1ccc2c(c1)OCO2 [Compound 19]	-82.75	5.13 ± 0.02	-4.52	21.9 ± 9.1	-45.41	12.7 ± 10.8	2.89	36.8 ± 14.5	97.76	> 50	
O=C(/C=C/c1ccc2c(c1)OCO2)NC(=[Se])NC1CCCCC1 [Compound 14]	10.32		44.98		83.89				101.60		149 to 151
CC(=O)Oc1ccccc1C(=O)NC(=[Se])NC1CCCCC1 [Compound 9]	-44.19	8.76 ± 2.13	-7.60	29.8 ± 22.5	1.88	10.2 ± 0.29	1.11	11.4 ± 18	117.25	> 50	79 to 81
CC(C)N=C(NC(C)C)[Se]C(=O)c1cccs1 [Compound 6]	124.09		111.26		124.62				122.83		120 to 122
CC(=O)Oc1ccccc1C(=O)NC(=[Se])NC(C)C [Compound 16]	-67.79	11.4 ± 3.07	-0.98	23 ± 23.5	24.61	10.2 ± 13.6	2.17	22.2 ± 3.41	86.98	> 50	75 to 77
CC(C)NC(=[Se])NC(=O)c1ccccc1O [Compound 22]	-6.12		3.08		73.13				80.19		162 to 164
O=C(/C=C/c1ccccc1)NC(=[Se])NC1CCCCC1 [Compound 11]	50.53		57.39		71.20				103.12		140 to 142
CC(C)N=C(NC(C)C)[Se]C(=O)c1ccc2c(c1)OCO2 [Compound 7]	131.68		108.33		119.84				105.51		138 to 140
O=C(/C=C/c1ccccc1)[Se]C(=NC1CCCCC1)NC1CCCCC1 [Compound 2]	118.17		74.82		-19.52				120.40		156 to 158
CC(C)NC(=[Se])NC(=O)/C=C/c1ccccc1 [Compound 18]	15.40		57.40		65.14				75.78		
CC(C)NC(=[Se])NC(=O)/C=C/c1ccc2c(c1)OCO2 [Compound 21]	76.50		27.21		-6.05				89.57		172 to 174
O=C(NC(=[Se])NC1CCCCC1)c1cccs1 [Compound 10]	-82.64	5.18 ± 0.19	-25.90	10.1 ± 4.88	107.48	10.1 ± 0.25	4.83	49 ± 39.2	122.54	> 50	64 to 66
O=C(NC(=[Se])NC1CCCCC1)c1ccc2c(c1)OCO2 [Compound 12]	-74.14	5.22 ± 0.13	-34.26	10.7 ± 13.7	-7.07	30.7 ± 2.31	1.28	39.3 ± 18.4	76.40	> 50	117 to 119
CC(C)N=C(NC(C)C)[Se]C(=O)c1ccccc1 [Compound 3]	149.27		109.68		129.19				119.69		163 to 165
